According to US12269815B2, “Dantrolene prodrugs and methods of their use” (EAGLE RESEARCH LABS LIMITED, priority 2017, dated 2025):
Where two headings read alike, the source gives them in different places.

Tests used:
[1] = design: species or system Harlan Sprague Dawley rats; details: rat, in vivo, 7.5 mg/kg
Procedure: Compound 2a is formulated at 8 mg/mL in 5% aqueous mannitol (as a tonicity modifier), at pH 8.0. The formulation is administered IV, SC, or IM to cannulated Harlan Sprague Dawley rats (3 rats/group) from Envigo RMS, Inc. (Indianapolis, Ind.). […] Whole blood (0.1 mL) is collected via a jugular vein catheter at 0, 0.033 (IV only), 0.083, 0.167, 0.33, 0.66, 1, 3, 6, and 9 hours. […] Samples are then placed on wet ice until centrifugation to remove precipitate. […] Samples are quantified based on standard curves prepared with each analyte in the precipitated whole blood matrix. […] Area Under the Curve (AUC) is calculated using the trapezoidal rule by SigmaPlot 12.5 software.

[2] = Another pharmacokinetic analysis of Compound 2a in live rats (whole blood and plasma; IV, IM, SC); assay type: in vivo; details: 7.5 mg/kg Compound 2a
[3] = rat, in vivo; for % Bioavailability of dantrolene: 7.5 mg/kg
[4] = Whole-blood pharmacokinetics of Compound 2a in live rats (second analysis); assay type: in vivo; details: 7.5 mg/kg Compound 2a
[5] = not given; remark: listed apart in the source
physchem = details: rat, plasma
[6] = cited from earlier work

Structure (SMILES): O=C1CN(/N=C/c2ccc(-c3ccc([N+](=O)[O-])cc3)o2)C(=O)N1COP(=O)([O-])[O-].[Na+].[Na+] [Compound 2a]
- half-life of prodrug in rat plasma: 82 min
- appearance of dantrolene in the blood after administration [1]: rapid appearance of dantrolene in the blood
- % Bioavailability of dantrolene ([2]; plasma, IM): 56.7%
- % Bioavailability of dantrolene ([2]; plasma, IV): 100%
- % Bioavailability of dantrolene ([2]; plasma, SC): 49.7%
- % Bioavailability of dantrolene ([2]; whole blood, IM): 80.8%
- % Bioavailability of dantrolene ([2]; whole blood, IV): 100%
- % Bioavailability of dantrolene ([2]; whole blood, SC): 64.0%
- amount of 2a observed after administration [3]: only trace amounts
- % Bioavailability of dantrolene ([3]; im): 77.8%
- % Bioavailability of dantrolene ([3]; iv): 100%
- % Bioavailability of dantrolene ([4]; IM): 95.3%
- % Bioavailability of dantrolene ([4]; IV): 100%
- conversion to dantrolene in phosphate-buffered saline [5]: no conversion was observed

Structure (SMILES): O=C(O)CCC(=O)OCc1ccc(NC(=O)OCN2C(=O)CN(/N=C/c3ccc(-c4ccc([N+](=O)[O-])cc4)o3)C2=O)cc1 [Compound 17b]
- half-life at 100 μg/mL (physchem): 447 min

Structure (SMILES): Cl.NCC(=O)OCN1C(=O)CN(/N=C/c2ccc(-c3ccc([N+](=O)[O-])cc3)o2)C1=O [Compound 22c]
- half-life of prodrug in rat plasma: 3.2 min
- reconversion in phosphate-buffered saline [5]: 85%

Structure (SMILES): O=C1CN(/N=C/c2ccc(-c3ccc([N+](=O)[O-])cc3)o2)C(O)=N1 [Dantrolene, 1-{[5-(4-nitrophenyl)-2-furyl]methylideneamino}imidazolidine-2,4-dione]
- solubility in water [6]: very poorly soluble in water
